Laboratory results published in patent US20240409548A1, “MODULATORS OF THE BETA-3 ADRENERGIC RECEPTOR USEFUL FOR THE TREATMENT OR PREVENTION OF DISORDERS RELATED THERETO” (Arena Pharmaceuticals, Inc., priority 2021, published 2024).
≈ marks a conversion by molar mass, not a printed value. Like-named read-outs stand apart in the source and are kept apart here.

Tests used:
[1] = Aqueous solubility at various pH values (pH-solubility fit); conditions: for aqueous solubility: A=active free base
Experimental: Solubility of Compound A in aqueous media was measured at various pH values. The conjugate acid ionization constant and intrinsic solubility of the free base were derived by fitting the measured pH-solubility data to the slope-intercept form of the Henderson-Hasselbalch equation for monobasic molecules.

[2] = for Solubility (mM) / Solubility (mg/mL): 21° C.±1° C.
Experimental: (§1) Compound C was slurried in various solvents (Table 1) for 2 weeks at ambient temperature (21° C.±1° C.). […] Solubility was determined after 1 day of equilibration and slurries were allowed to stir for 2 weeks. The temperature was monitored and determined to be 21° C.±1° C. for the duration of the study. At the end of 2 weeks, the slurries were removed from stirring and solids were isolated by centrifuge filtration using 0.45-μm nylon filters, allowed to air-dry overnight, and then analyzed by PXRD. Selected samples were also analyzed by TGA and DSC.
Solubility was determined by gravimetric analysis after ˜24 hours of equilibration at ambient temperature (21° C.±1° C.). Samples were separated by centrifuge filtration using an Eppendorf 5417C model centrifuge. Suspension samples were placed into centrifuge filter tubes with 0.45-μm nylon membrane filter and spun at 10000 rpm for 1 minute. Filtrate aliquots of 10 to 20 μL were placed into separate thermogravimetric analyzer pans, previously tared on a TA Instruments Q5000. The filtrates were dried to achieve dry residual solid weights. Solubility was calculated by dividing the dry residual weight by the aliquot volume.

[3] = Dynamic moisture sorption (DMS); type: physicochemical
Experimental: Dynamic Moisture Sorption analysis was performed using a TA Instruments Q5000 SA (EQ2418). The sample was prepared for DMS analysis by placing ˜5 mg of compound into a tared sample holder.

[4] = slurry, ambient temperature
Experimental: as §1
X-ray diffraction analysis was performed using a PANalytical. X′Pert PRO MPD powder X-ray diffractometer (EQ0233). Samples were prepared by placing several milligrams of compound onto a sample holder and smoothing flat.

[5] = dimethyl sulfoxide (remained a solution), ~24 hours
[6] = methyl t-butyl ether, ~24 hours equilibration
[7] = water/acetone (1:20), ~24 hours
[8] = water/acetonitrile (1:20), ~24 hours
[9] = water/isopropyl alcohol (1:20), ~24 hours

CCn1cc(S(=O)(=O)N2CCC3(CC2)C[C@@H](NC[C@H](O)COc2cccc(S(C)(=O)=O)c2)CO3)c(=O)c2ccccc21 [Compound D, 1-ethyl-3-((R)-3-((S)-2-hydroxy-3-(3-(methylsulfonyl)phenoxy)propylamino)-1-oxa-8-azaspiro[4.5]decan-8-ylsulfonyl)quinolin-4(1H)-one]
pKa [1]: 7.44 | solubility ([1]; aqueous buffer): 530 µg/mL (≈ 855 µM)

CCn1cc(S(=O)(=O)N2CCC3(CC2)C[C@@H](NC[C@H](O)COc2cccc(S(C)(=O)=O)c2)CO3)c(=O)c2ccccc21.CCn1cc(S(=O)(=O)N2CCC3(CC2)C[C@@H](NC[C@H](O)COc2cccc(S(C)(=O)=O)c2)CO3)c(=O)c2ccccc21.CS(=O)(=O)O.CS(=O)(=O)O.O [Compound A, 1-ethyl-3-((R)-3-((S)-2-hydroxy-3-(3-(methylsulfonyl)phenoxy)propylamino)-1-oxa-8-azaspiro[4.5]decan-8-ylsulfonyl)quinolin-4(1H)-one mesylate hemihydrate Form 2]
Solubility (mM) ([2]; Acetone, ~24 hours): 0.61 mM | Solubility (mg/mL) ([2]; Acetone, ~24 hours): 0.44 mg/mL | Solubility (mM) ([2]; Acetonitrile, ~24 hours): 2.31 mM | Solubility (mg/mL) ([2]; Acetonitrile, ~24 hours): 1.66 mg/mL | Solubility (mM) ([2]; Tetrahydrofuran, ~24 hours): 0.39 mM | Solubility (mg/mL) ([2]; Tetrahydrofuran, ~24 hours): 0.28 mg/mL | Solubility (mM) ([2]; Water, ~24 hours): 52.6 mM | Solubility (mg/mL) ([2]; Water, ~24 hours): 30.5 mg/mL | Solubility (mM) [2, 5]: >610 mM | Solubility (mg/mL) [2, 5]: >437 mg/mL | Solubility (mM) ([2]; ethyl acetate, ~24 hours): 0.88 mM | Solubility (mg/mL) ([2]; ethyl acetate, ~24 hours): 0.63 mg/mL | Solubility (mM) ([2]; ethyl alcohol, ~24 hours): 1.03 mM | Solubility (mg/mL) ([2]; ethyl alcohol, ~24 hours): 0.73 mg/mL | solubility ([2]; in methanol, dimethyl sulfoxide, and aqueous systems (high solubility)): > 20 mM | solubility ([2]; in most organic solvents (low solubility)): ≤ 1 mM | Solubility (mM) ([2]; isopropyl alcohol, ~24 hours): 1.01 mM | Solubility (mg/mL) ([2]; isopropyl alcohol, ~24 hours): 0.72 mg/mL | Solubility (mM) ([2]; methyl alcohol, ~24 hours): 21.6 mM | Solubility (mg/mL) ([2]; methyl alcohol, ~24 hours): 15.5 mg/mL | Solubility (mM) ([2]; methyl ethyl ketone, ~24 hours): 0.99 mM | Solubility (mg/mL) ([2]; methyl ethyl ketone, ~24 hours): 0.71 mg/mL | Solubility (mM) [2, 6]: 0.76 mM | Solubility (mg/mL) [2, 6]: 0.54 mg/mL | Solubility (mM) [2, 7]: 47.3 mM | Solubility (mg/mL) [2, 7]: 33.9 mg/mL | Solubility (mM) [2, 8]: 97.0 mM | Solubility (mg/mL) [2, 8]: 69.5 mg/mL | Solubility (mM) [2, 9]: 29.4 mM | Solubility (mg/mL) [2, 9]: 21.2 mg/mL | aqueous solubility [1]: about 28 mgA/mL | aqueous solubility ([1]; listed as mesylate salt): 28 mgA/mL | pHmax ([1]; associated with the mesylate salt): 5.7 | hygroscopicity ([3]; DMS scan 0 to 90% RH, 25° C.): non-hygroscopic | weight change between 30% RH and 90% RH (DMS) ([3]; at 2500, after essentially fully rehydrating): ~0.1% | total weight change of water during the drying step (DMS) ([3]; condition 4000 and ~1% RH until steady weight in ~1 hour): about 0.35% | crystal form stability / conversion ([4]; listed as Form 2): does not convert to any other form at ambient temperature

CCn1cc(S(=O)(=O)N2CCC3(CC2)C[C@@H](NC[C@H](O)COc2cccc(S(C)(=O)=O)c2)CO3)c(=O)c2ccccc21.CCn1cc(S(=O)(=O)N2CCC3(CC2)C[C@@H](NC[C@H](O)COc2cccc(S(C)(=O)=O)c2)CO3)c(=O)c2ccccc21.CS(=O)(=O)O.CS(=O)(=O)O.O [Compound B, 1-ethyl-3-((R)-3-((S)-2-hydroxy-3-(3-(methylsulfonyl)phenoxy)propylamino)-1-oxa-8-azaspiro[4.5]decan-8-ylsulfonyl)quinolin-4(1H)-one mesylate hemihydrate Form 1]
crystal form stability / conversion ([4]; listed as Form 1): converts to Form 2 in water
